pEC50: −log10 of the molar value.
Experiments:
[1] = test system: SPP; experiment: SPP expression in IGR-Heu cells electroporated with siRNA (real-time RT-PCR; protein); assay type: cell-based, human; conditions: for SPP expression at RNA level: 50 nM siRNA, 72 h, FIG. 5B; for SPP expression at protein level: data not shown
Protocol: (§1) FIG. 5: Processing of the preprocalcitonin16-25 antigenic peptide involves SP and SPP. A. IGR-Heu tumor cells were incubated for 2 h at 37° C. with the serine protease inhibitor dichloroisocoumarin (DCI) at 250 μM, before addition of anti-preprocalcitonin (left panel) or anti-α-actinin-4 (right panel) CTL clones. B. Analysis of SPP mRNA expression by real-time RT-PCR analysis. Total RNA extracted from IGR-Heu tumor cells, electroporated or not with siRNA targeting SPP (siRNA-S1, siRNA-S2), was reverse-transcribed and quantified by TaqMan as described in Materials and Methods. C. Effect of SPP extinction on tumor cell recognition. Lytic activity of CTL clones Heu161 and Heu127 against IGR-Heu target cells, electroporated or not with siRNA-S1, siRNA-S2 or control siRNA, determined by a conventional 4 h ^51Cr-release assay at the indicated E/T ratios. Two representative experiments of six are shown for CTL clone Heu161. D. Production of IFNγ by Heu161 and Heu127 CTL clones stimulated with tumor cells electroporated or not with siRNA-S1 or control siRNA. E. The preprocalcitonin16-25 antigenic peptide is located at the C-terminus of the signal sequence of the calcitonin hormone precursor. The optimal peptide recognized by CTL clone Heu161 is boxed. Arrows indicate the signal peptidase (SP) and the approximate signal peptide peptidase (SPP) cleavage sites. The n, h and c regions in the preprocalcitonin signal peptide were predicted using SignalP 3.0 software.
For SPP inhibition, we first tried the cysteine protease inhibitor Z-LL2 ketone (Calbiochem, Darmstadt, Germany), which was reported to specifically block SPP activity (WEIHOFEN et al., J Biol Chem, 275, 30951-6, 2000). No conclusive results were obtained in functional assays. We thus used siRNA targeting human SPP, siRNA-S1 (5-GACAUGCCUGAAACAAUCAtt-3; SEQ ID NO: 3) and siRNA-S2 (5-UGAUUGUUUCAGGCAUGUCtg-3; SEQ ID NO: 4), purchased from Ambion (Austin, Tex. USA). Non-targeting siRNA (Ambion) were used as negative control (siRNA Control). Briefly, IGR-Heu cells were transfected by electroporation with 50 nM siRNA in a Gene Pulser Xcell Electroporation System (Bio-Rad; 300 V, […]) as previously described (LE FLOC'H et al., J Exp Med, 2007) and then allowed to grow for 72 h.
For SPP mRNA expression, total RNA from IGR-Heu cells, transfected or not with siRNA-S 1 and siRNA-S2 targeting SPP, was extracted, reverse-transcribed and quantified by real-time RT-PCR analysis (TaqMan). PCR primers and probe were designed by Applied Biosystems and used according to the manufacturer's recommendations. The amount of RNA sample was normalized by amplification of an endogenous control (18S). […]

[2] = test system: IGR-Heu tumor cells; experiment: Lysis (4 h 51Cr-release) by CTL clones of siRNA-electroporated IGR-Heu target cells; assay type: cell-based, human; conditions: CTL Heu161, FIG. 5C
Protocol: as §1, with “The optimal peptide recognized by CTL clone Heu161 is boxed. Arrows indicate the signal peptidase (SP) and the approximate signal peptide peptidase (SPP) cleavage sites. The n, h and c regions in the preprocalcitonin signal peptide were predicted using SignalP 3.0 software.” left out
(§2) Cytotoxic activity was measured by a conventional 4-h ^51Cr-release assay using triplicate cultures in round-bottomed 96-well plates. Percent specific cytotoxicity was calculated conventionally; SD were <5%. […]

[3] = test system: IGR-Heu tumor cells; experiment: SP inhibition: lysis by CTL clones of DCI-treated IGR-Heu tumor cells; assay type: cell-based, human; conditions: pre-incubation of IGR-Heu, 250 μM, 2 h 37° C.; FIG. 5A
Protocol: as §1, with “The optimal peptide recognized by CTL clone Heu161 is boxed. Arrows indicate the signal peptidase (SP) and the approximate signal peptide peptidase (SPP) cleavage sites. The n, h and c regions in the preprocalcitonin signal peptide were predicted using SignalP 3.0 software.” left out
as §2

[4] = target: T1, human TAP (Homo sapiens, UniProt Q03518+Q03519); experiment: TAP involvement: CTL recognition of 293-EBNA transfectants cotransfected with ICP47; assay type: cell-based
T1 construct: endogenous in cells; host or cells: 293-EBNA cells
T1 sequence (Q03518 1-748): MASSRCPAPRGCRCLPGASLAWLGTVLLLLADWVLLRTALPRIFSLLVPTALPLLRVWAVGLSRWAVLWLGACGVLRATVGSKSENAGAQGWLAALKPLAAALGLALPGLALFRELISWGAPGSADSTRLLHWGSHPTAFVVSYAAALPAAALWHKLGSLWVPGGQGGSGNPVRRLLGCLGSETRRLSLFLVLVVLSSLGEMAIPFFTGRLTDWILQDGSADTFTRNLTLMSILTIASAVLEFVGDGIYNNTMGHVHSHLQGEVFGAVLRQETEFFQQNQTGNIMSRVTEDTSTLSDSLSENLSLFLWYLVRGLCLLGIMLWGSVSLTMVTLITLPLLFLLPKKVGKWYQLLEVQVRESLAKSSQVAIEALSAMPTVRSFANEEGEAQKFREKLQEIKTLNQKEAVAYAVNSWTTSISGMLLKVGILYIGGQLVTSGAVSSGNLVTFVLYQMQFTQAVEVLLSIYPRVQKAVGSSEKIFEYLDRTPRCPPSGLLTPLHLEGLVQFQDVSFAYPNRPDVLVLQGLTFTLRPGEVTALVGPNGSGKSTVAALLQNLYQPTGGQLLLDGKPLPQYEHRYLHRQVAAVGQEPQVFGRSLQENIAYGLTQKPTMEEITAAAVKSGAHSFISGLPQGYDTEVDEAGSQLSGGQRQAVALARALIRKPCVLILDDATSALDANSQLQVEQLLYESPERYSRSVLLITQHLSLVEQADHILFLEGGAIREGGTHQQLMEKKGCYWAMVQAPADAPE
T1 sequence (Q03519 1-686): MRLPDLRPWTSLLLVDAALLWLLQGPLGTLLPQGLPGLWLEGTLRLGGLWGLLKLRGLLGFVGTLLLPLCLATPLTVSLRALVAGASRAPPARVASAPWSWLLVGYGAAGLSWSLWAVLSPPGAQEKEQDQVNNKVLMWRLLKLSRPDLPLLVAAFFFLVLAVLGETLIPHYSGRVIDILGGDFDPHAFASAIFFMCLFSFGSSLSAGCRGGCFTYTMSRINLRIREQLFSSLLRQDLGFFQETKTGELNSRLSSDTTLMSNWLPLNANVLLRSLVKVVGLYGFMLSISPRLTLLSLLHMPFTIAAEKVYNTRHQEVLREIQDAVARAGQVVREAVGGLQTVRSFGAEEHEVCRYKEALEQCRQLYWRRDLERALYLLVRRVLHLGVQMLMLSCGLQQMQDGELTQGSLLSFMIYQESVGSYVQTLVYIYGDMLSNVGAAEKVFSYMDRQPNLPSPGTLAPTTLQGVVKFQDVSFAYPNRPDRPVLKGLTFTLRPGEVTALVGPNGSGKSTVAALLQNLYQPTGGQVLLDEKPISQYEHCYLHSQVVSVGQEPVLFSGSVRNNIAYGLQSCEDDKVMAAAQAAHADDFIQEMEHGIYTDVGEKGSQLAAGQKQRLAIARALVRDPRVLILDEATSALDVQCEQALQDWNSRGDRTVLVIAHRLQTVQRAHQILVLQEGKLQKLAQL
Protocol: FIG. 4: Processing of the preprocalcitonin16-25 peptide is proteasome- and TAP-independent. A. IGR-Heu target cells were incubated for 2 h at 37° C. in the presence or absence of the proteasome-specific inhibitor epoxomicin, and then Heu161 cells were added. The autologous Heu127 clone, recognizing on IGR-Heu a proteasome-dependent mutated α-actinin-4 peptide, was included as a positive control. TNFβ released in medium after 24 h of culture was measured as above. B. 293-EBNA cells were cotransfected with pCEP4 containing either cDNA 150 (upper panel) or the mutated α-actinin-4 cDNA (lower panel), with pcDNA3.1 containing an HLA-A*0201 construct, and with various amounts of vector pBJi-neo containing IPC47 cDNA. CTL clones Heu161 (upper panel) or Heu127 (lower panel) were then added. Controls included 293-EBNA cells transfected with HLA-A2 or pBJi-neo-IPC47 alone, and incubation of transfectants with either preprocalcitonin or α-actinin-4 peptides. Data shown are representative of four independent experiments.
The involvement of TAP was tested by cotransfecting into 293-EBNA cells constructs coding for the antigenic peptide, for HLA-A2, and for the immediate-early protein ICP47 of herpes simplex virus type 1, which binds to and inhibits human TAP (BANKS et al., Virology, 200, 236-45, 1994).

[5] = test system: CTL clone Heu161; experiment: CTL stimulation (TNF release) by synthetic peptides loaded on HLA-A2+ MZ2-MEL.3.1 melanoma cells; assay type: cell-based, human
Protocol: FIG. 3: Identification of the antigenic peptide recognized by CTL clone Heu161. A. CTL stimulation with purified synthetic peptides. Peptides were loaded on allogeneic HLA-A2^+ MZ2-MEL.3.1 melanoma cells for 60 min at room temperature before addition of CTL clone Heu161. TNF release was measured 16 h later. Empty circles represent the results obtained with peptide SEQ ID NO: 1, full circles represent the results obtained with peptide SEQ ID NO: 2, empty squares represent the results obtained with peptide SEQ ID NO: 24, full squares represent the results obtained with peptide SEQ ID NO: 25 and empty diamonds represent the results obtained with peptide SEQ ID NO: 26. B. Lytic activity of CTL clone on peptide-pulsed cells. ^51Cr-labeled Heu-EBV-B cells were incubated over 60 min with the indicated concentrations of peptides before addition of CTL clone Heu161 at an E/T cell ratio of 10:1. Chromium release was measured after 4 h. Empty circles represent the results obtained with peptide SEQ ID NO: 1, full circles represent the results obtained with peptide SEQ ID NO: 2
TNFβ was detected by measuring the cytotoxicity of the culture medium on TNF-sensitive WEHI-164c13 cells with a MTT colorimetric assay (ESPEVIK & NISSEN-MEYER, J Immunol Methods, 95, 99-105, 1986).
We then prepared a series of calcitonin cDNA fragments truncated at their 5′ end and engineered to contain an initiation codon and a Kozak consensus sequence. […] Further trimming narrowed down the peptide-encoding region to residues 9-38 (FIG. 2B). Among a set of overlapping peptides covering this region, only two were recognized by CTL clone Heu161: VLLQAGSLHA (SEQ ID NO: 1) and LVLLQAGSLHA (SEQ ID NO: 2), which are identical, but with an additional leucine in the latter peptide. […] In a lysis assay, the decamer was slightly more efficient than the 11-mer peptide by a factor of about three (FIG. 3B). We concluded that the optimal antigenic peptide recognized by CTL clone Heu161 was VLLQAGSLHA (SEQ ID NO: 1) or preprocalcitonin16-25. This peptide corresponds exactly to the C-terminal part of the preprocalcitonin signal peptide (LE MOULLEC et al., FEBS Lett, 167, 93-7, 1984).

Compound | SPP expression at RNA level [1] | SPP expression at protein level [1] | sensitivity of tumor cells to lysis by anti-preprocalcitonin CTL clone [2] | also measured
5-GACAUGCCUGAAACAAUCAtt-3 [siRNA-S1] | specifically inhibit SPP expression | specifically inhibit SPP expression | strong decrease | 
5-UGAUUGUUUCAGGCAUGUCtg-3 [siRNA-S2] | specifically inhibit SPP expression | specifically inhibit SPP expression | strong decrease | 
O=c1oc(Cl)c(Cl)c2ccccc12 [DCI, dichloroisocoumarin] |  |  |  | effect on lysis by anti-preprocalcitonin CTL clone [3]: totally resistant to lysis; effect on recognition by anti-α-actinin-4 CTL clone [3]: only a moderate effect
ICP47: immediate-early protein ICP47 of herpes simplex virus type 1, which binds to and inhibits human TAP; expressed by cotransfection |  |  |  | effect on recognition of transfectants by anti-preprocalcitonin CTLs ([4]; cDNA 150 + HLA-A2, FIG. 4B): no detectable effect; effect on recognition of transfectants by anti-α-actinin-4 CTL clone ([4]; mutated α-actinin-4 cDNA + HLA-A2, FIG. 4B): strongly inhibited
LVLLQAGSLHA [SEQ ID NO: 2] |  |  |  | pEC50 ([5]; HLA-A2+ melanoma cells loaded 60 min, TNF release after 16 h, FIG. 3A, read-out: peptide concentration giving half-maximal effect (sensitization to recognition by CTL Heu161)): ~8.00; recognition of peptide by CTL clone Heu161 ([5]; overlapping synthetic peptides of preprocalcitonin): recognized
